According to US4492711A, “Benzamides, their salts, and pharmaceutical compositions containing them” (SANOFI, priority 1982, dated 1985):

Assays:
[1] = molecular target: T1, gastric histamine H2 receptors (Rattus norvegicus, UniProt P25102); assay: Antagonism of gastric hypersecretion induced by histamine in the atropinized rat (Ghosh and Schild modified according to Black et al.); type: in vivo; details: intravenous; for Relative potency (cimetidine = 1): ID50-based, compared to cimetidine; for ED50: single dose, histamine i.v. infusion 15 mcmol/kg/hour, read-out: ID50 (dose which inhibits by 50% the gastric hypersecretion induced by histamine)
T1 construct: the gastric secretion is measured by perfusion of a physiological solution at a constant speed in the stomach of the animal; from tissue; host or cells: stomach of the living atropinized rat (in vivo, perfused stomach)
Protocol: According to this test, a gastric acid hypersecretion is induced by intravenous infusion of a sub-maximal dose of histamine equivalent to 15 mcmol/kg/hour and the gastric secretion is measured by perfusion of a physiological solution at a constant speed in the stomach of the animal.
The ID50 represents the index of the gastric H2 -blocking action.

[2] = test system: gastric acid secretion; details: as oxalate; cited from earlier work
[3] = test system: hypersecretion induced by dimaprit; assay: Antisecretory activity in the cat bearing a gastric fistula, dimaprit-induced hypersecretion (Emas et al.); type: in vivo; details: cat with gastric fistula, intragastric
Source text: The antisecretoy activity of the products of the present invention has been evaluated in the cat bearing a gastric fistula according to the method of Emas et al (Gastroenterology, 1960, 39, 771) by using, as hypersecretory agent, dimaprit at the dose of 640 mcg/kg/k.

T1 sequence (P25102 whole entry, the tested form may be a part): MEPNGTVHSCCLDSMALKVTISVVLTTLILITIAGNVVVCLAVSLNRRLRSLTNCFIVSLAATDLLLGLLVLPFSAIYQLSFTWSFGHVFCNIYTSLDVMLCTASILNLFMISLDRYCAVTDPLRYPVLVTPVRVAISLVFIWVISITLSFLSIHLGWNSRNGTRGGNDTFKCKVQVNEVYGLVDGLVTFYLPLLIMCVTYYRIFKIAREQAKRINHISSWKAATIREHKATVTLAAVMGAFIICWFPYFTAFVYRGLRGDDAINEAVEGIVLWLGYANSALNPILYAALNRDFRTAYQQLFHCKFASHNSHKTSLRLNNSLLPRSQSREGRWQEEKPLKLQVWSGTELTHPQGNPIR

Structure (SMILES) | Relative potency (cimetidine = 1) [1] | ED50 [1] [µmol/kg] | ED50, gastric acid secretion inhibiting activity in the rat [2] [mg/kg] | antagonism of the hypersecretion induced by dimaprit ([3]; an hour before dimaprit perfusion (640 mcg/kg/k)) | activity relative to cimetidine against hypersecretion induced by dimaprit ([3]; an hour before dimaprit perfusion, cimetidine as reference)
CNC(=C[N+](=O)[O-])Nc1cccc(C(=O)NCCSCc2ccc(CN(C)C)o2)c1 [SR 58028 A, 3-[N-(1-methylamino-2-nitroethenyl)amino]-N-[2-(5-dimethylaminomethylfuran-2-ylmethylthio)ethyl]benzamide] | 4.13 | 0.23 |  |  | 
CNC(=O)Nc1cccc(C(=O)NCCSCc2ccc(CN(C)C)o2)c1 [SR 57934, 3-(3-methylureido)-N-[2-(5-dimethylaminomethylfuran-2-ylmethylthio)ethyl]benzamide] | 0.62 | 1.53 |  |  | 
CNC(=NC#N)Nc1cccc(C(=O)NCCSCc2ccc(CN(C)C)o2)c1 [SR 57970, 3-(2-cyano-3-methylguanidino)-N-[2-(5-dimethylaminomethylfuran-2-ylmethylthio)ethyl]benzamide] | 1.90 | 0.5 |  |  | 
CNC(=C[N+](=O)[O-])NCCSCc1ccc(CN(C)C)o1 [Ranitidine, N-[2-[[5-[(dimethylamino)methyl]furfuryl]thio]ethyl]-N'-methyl-2-nitro-1,1-ethenediamine, reference compound] | 3.80 |  |  |  | 
CN(C)Cc1ccc(CSCCNC(=O)c2ccc(S(N)(=O)=O)cc2)o1 [Compound A, N-[2-(5-dimethylaminomethylfuran-2-ylmethylthio)ethyl]4-sulfamoylbenzamide, reference compound] | 0.42 |  | 2.54 |  | 
CNC(=S)Nc1cccc(C(=O)NCCSCc2ccc(CN(C)C)o2)c1 [SR 57914, 3-(3-methylthioureido)-N-[2-(5-dimethylaminomethylfuran-2-ylmethylthio)ethyl]benzamide] | 2.11 | 0.45 |  | antagonizes in dose depending way the hypersecretion induced by dimaprit | at least equal to that of cimetidine
